Assay results reported in patent publication US20230398140A1, “OCULAR-TENSION-INCREASING AGENT CAPABLE OF BEING DEPRIVED OF DRUG ACTIVITY BY TEMPERATURE CONTROL” (UNIVERSITY OF YAMANASHI, priority 2020, published 2023).

System: White house rabbits
Details: rabbit, in vivo

cloudiness of eyeball immediately after administration: became cloudy
Substance: poly(2-propyl-2-oxazoline) [POx]
cloudiness of eyeball after 24 hours: deposited on the iris and lens surface with the passage of time and remained as a white sediment
